Data as given in article PMC2631652 (Current biology : CB, 2008).

Target: T1, ClC-3 (long-ClC-3A) (Homo sapiens, UniProt P51790)
T1 sequence (P51790 1-818): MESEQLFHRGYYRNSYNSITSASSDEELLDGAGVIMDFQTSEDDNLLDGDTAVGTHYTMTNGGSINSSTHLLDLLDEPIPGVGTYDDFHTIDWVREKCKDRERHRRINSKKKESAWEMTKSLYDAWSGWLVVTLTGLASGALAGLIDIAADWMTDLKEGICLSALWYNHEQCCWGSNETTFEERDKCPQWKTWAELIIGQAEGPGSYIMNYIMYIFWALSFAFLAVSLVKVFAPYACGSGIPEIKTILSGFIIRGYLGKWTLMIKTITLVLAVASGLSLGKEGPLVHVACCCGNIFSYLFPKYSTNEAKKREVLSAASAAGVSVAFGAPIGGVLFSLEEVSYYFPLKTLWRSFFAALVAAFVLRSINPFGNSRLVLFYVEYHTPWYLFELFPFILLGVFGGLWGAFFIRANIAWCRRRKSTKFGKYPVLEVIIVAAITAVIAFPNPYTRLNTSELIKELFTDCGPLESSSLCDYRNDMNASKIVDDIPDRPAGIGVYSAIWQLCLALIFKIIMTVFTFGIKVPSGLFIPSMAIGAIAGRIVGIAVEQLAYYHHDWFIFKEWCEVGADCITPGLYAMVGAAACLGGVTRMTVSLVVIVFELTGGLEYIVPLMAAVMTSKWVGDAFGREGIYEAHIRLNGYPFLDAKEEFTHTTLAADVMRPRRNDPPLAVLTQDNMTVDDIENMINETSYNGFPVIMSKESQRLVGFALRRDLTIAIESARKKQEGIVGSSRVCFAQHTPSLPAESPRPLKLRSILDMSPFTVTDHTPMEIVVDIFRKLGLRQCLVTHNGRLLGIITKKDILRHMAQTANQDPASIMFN
Assay: whole-cell patch clamp, inhibitor in pipette
Assay type: cell-based

O=P(O)(O)O[C@H]1[C@H](OP(=O)(O)O)[C@@H](OP(=O)(O)O)[C@@H](O)[C@@H](O)[C@@H]1OP(=O)(O)O [Ins(3,4,5,6)P4]
IC50: 4.6 µM
